Test results taken from patent publication US20160324863A1, “TARGETED CANCER TREATMENT BY HSP90 INHIBITORS GANETESPIB AND NVP-AUY922” (SYNTA PHARMACEUTICALS CORP., priority 2014, published 2016).
Like-named read-outs stand apart in the source and are kept apart here.

Key:
[1] = system: DHS1 bladder cancer cell line; assay: CellTiter-Glo viability assay, DHS1; format: cell-based; conditions: FGFR3 status WT, 72 hours, read-out: Ganetespib IC50
Method: (§1) Cellular viability was assessed using the CellTiter-Glo Luminescent Cell Viability Assay (Promega) according to manufacturer protocols. Bladder cancer cell lines were seeded into 96-well plates based on optimal growth rates determined empirically for each line. Twenty-four hours after plating, cells were dosed with graded concentrations of ganetespib for 72 hours. CellTiter-Glo was added (50% v/v) to the cells, and the plates incubated for 10 minutes prior to luminescent detection in a SpectraMax Plus 384 microplate reader (Molecular Devices). Data were normalized to percent of control and IC50 values used to determine the sensitivity of each line. For the comparative analyses with ganetespib and BGJ398, RT112 cells were treated with graded concentrations of each compound for 72 hours and cell viability measured as above. For the evaluation of apoptotic induction, caspase activity was assessed using the Caspase-Glo 3/7 assay (Promega) according to manufacturer protocols. Twenty-four hours after plating, RT112 cells were treated with graded concentrations of ganetespib for 24 hours. Caspase-Glo was added to cells (50% v/v) and the plates incubated for 1 hour prior to luminescent detection.

[2] = system: SW-1710 bladder cancer cell line; assay: CellTiter-Glo viability assay, SW-1710; format: cell-based; conditions: Homo sapiens, SW1710, FGFR3 status WT, 72 hours, read-out: Ganetespib IC50
Method: as §1

[3] = system: RT112 bladder cancer cell line; assay: CellTiter-Glo viability assay, RT112; format: cell-based; conditions: Homo sapiens
Method: as §1

[4] = system: 639-V bladder cancer cell line; assay: CellTiter-Glo viability assay, 639-V; format: cell-based; conditions: Homo sapiens, FGFR3 status R248C, 72 hours, read-out: Ganetespib IC50
Method: as §1

[5] = system: SCaBER bladder cancer cell line; assay: CellTiter-Glo viability assay, SCaBER; format: cell-based; conditions: Homo sapiens, FGFR3 status WT, 72 hours, read-out: Ganetespib IC50
Method: as §1

[6] = system: BFTC bladder cancer cell line; assay: CellTiter-Glo viability assay, BFTC; format: cell-based; conditions: FGFR3 status WT, 72 hours, read-out: Ganetespib IC50
Method: as §1

[7] = system: J82 bladder cancer cell line; assay: CellTiter-Glo viability assay, J82; format: cell-based; conditions: FGFR3 status K652E, 72 hours, read-out: Ganetespib IC50
Method: as §1

[8] = system: HT-1376 bladder cancer cell line; assay: CellTiter-Glo viability assay, HT-1376; format: cell-based; conditions: Homo sapiens, FGFR3 status WT, 72 hours, read-out: Ganetespib IC50
Method: as §1

[9] = system: 647-V bladder cancer cell line; assay: CellTiter-Glo viability assay, 647-V; format: cell-based; conditions: Homo sapiens, FGFR3 status WT, 72 hours, read-out: Ganetespib IC50
Method: as §1

[10] = system: KU-19-19 bladder cancer cell line; assay: CellTiter-Glo viability assay, KU-19-19; format: cell-based; conditions: Homo sapiens, FGFR3 status WT, 72 hours, read-out: Ganetespib IC50
Method: as §1

[11] = system: 97-7 bladder cancer cell line; assay: CellTiter-Glo viability assay, 97-7; format: cell-based; conditions: FGFR3 status S249C, 72 hours, read-out: Ganetespib IC50
Method: as §1

[12] = system: 5637 bladder cancer cell line; assay: CellTiter-Glo viability assay, 5637; format: cell-based; conditions: FGFR3 status WT, 72 hours, read-out: Ganetespib IC50
Method: as §1

[13] = system: MGH-U3 bladder cancer cell line; assay: CellTiter-Glo viability assay, MGH-U3; format: cell-based; conditions: FGFR3 status Y375C, 72 hours, read-out: Ganetespib IC50
Method: as §1

[14] = system: RT4 bladder cancer cell line; assay: CellTiter-Glo viability assay, RT4; format: cell-based
Method: as §1

[15] = system: SW780 bladder cancer cell line; assay: CellTiter-Glo viability assay, SW780; format: cell-based; conditions: Homo sapiens, FGFR3 status FGFR3-BAIAP2L1, 72 hours, read-out: Ganetespib IC50
Method: as §1

[16] = system: FGFR3-TAAC3 in RT112 cells; assay: Western blotting of FGFR3-TAAC3 and signaling proteins in RT112 cells; format: cell-based; conditions: 200 nM ganetespib
Method: Following in vitro assays, tumor cells were disrupted in lysis buffer on ice for 10 minutes. Lysates were clarified by centrifugation and equal amounts of proteins resolved by SDS-PAGE before transfer to nitrocellulose membranes (Bio-Rad). Membranes were blocked with StartingBlock T20 blocking buffer (Thermo Scientific) and immunoblotted with the indicated antibodies. Antibody-antigen complexes were visualized using an Odyssey system (LI-COR).

SW780 cells = assay: LC-MS/MS bioanalysis of ganetespib and glucuronidated metabolites in SW780 cells; format: in vitro ADME; conditions: 1 μM ganetespib, by 24 hours
Method: (§2) In the first set of experiments, RT112 and SW780 cells were treated with graded concentrations of ganetespib or 17-DMAG (10-1000 nM) for 1 and 24 hours. Cell lysates were prepared for measurement of intracellular concentrations of the respective HSP90 inhibitors. RT112 and SW780 cells were also treated with 1 μM ganetespib for 15 minutes, 1, 4, 8 and 24 hours. At each time point cell lysates were prepared and media was collected for analysis of intracellular and secreted concentrations of ganetespib and its glucuronidated metabolites. Bioanalysis was performed on equal protein concentrations from cell lysates or equal volumes of media. All samples were ultimately extracted by protein precipitation and analyzed by LC-MS/MS using an Agilent 1100 HPLC interfaced to an API 4000 tandem mass spectrometer (Applied Biosystems). A Phenomenex Kinetex 2.6 μm C18 (30×2.1 mm) column was used with a run time of 3.5 min per sample.

SW1463 cells = assay: Cell viability assay, SW1463 colorectal cancer cells; conditions: Homo sapiens, read-out: IC50 based on cell viability
Method: (§3) 24 hours after transfection, […] were seeded in triplicate in 96-well plates one day before treatment. Cells were treated with inhibitors and drugs for 48 hours and subjected to the CellTiterGlo Luminescent Cell Viability assay (Promega, Madison Wis., USA).

HT29 cells = assay: Cell viability assay, HT29 colorectal cancer cells; conditions: Homo sapiens, HT-29, read-out: IC50 based on cell viability
Method: as §3

RT112 cells = assay: LC-MS/MS bioanalysis of ganetespib and glucuronidated metabolites in RT112 cells; format: in vitro ADME; conditions: 1 μM ganetespib, 24-hour time course
Method: as §2

[17] = weekly dosing regimen; cited from earlier work

For CC(C)c1cc(-c2n[nH]c(=O)n2-c2ccc3c(ccn3C)c2)c(O)cc1O [ganetespib], the IC50 [1] was 6 nM, the IC50 [2] was 6 nM and the IC50 ([3]; RT-112, 72-hour combination viability assay, single inhibitor, read-out: approximate IC50 concentrations) was about 9.6 nM. The IC50 ([3]; RT-112, FGFR3 status FGFR3-TACC3, 72 hours, read-out: Ganetespib IC50) was 9 nM, the IC50 [4] was 10 nM and the IC50 [5] was 10 nM. The IC50 [6] was 17 nM, the IC50 [7] was 18 nM and the IC50 [8] was 21 nM. For the same molecule, the IC50 [9] was 27 nM, the IC50 [10] was 36 nM and the IC50 [11] was 38 nM. It also gave an IC50 [12] of 44 nM, an IC50 [13] of 53 nM and an IC50 ([14]; 72 hours (FIG. 8), read-out: IC50 values) of over 1000 nM. The IC50 ([14]; FGFR3 status FGFR3-TACC3, 72 hours, read-out: Ganetespib IC50) was 1730 nM, the IC50 [15] was 3450 nM and the “time to destabilization of the FGFR3-TAAC3 fusion and alterations in downstream signaling” value [16] was at most 4 h. The intracellular ganetespib concentrations (SW780 cells) was “undetectable”, the IC50 (SW1463 cells) was 100 nM and the IC50 (HT29 cells) was 2000 nM. The “glucuronidated form of ganetespib within cells” value (RT112 cells) was “No glucuronidated form of ganetespib was detectable” and the maximally tolerated dose [17] was 150 mg/kg.
